In patent US6117845A, “C-linked analogs of N-(4-hydroxyphenyl) retinamide” (Ohio State University Research Foundation, priority 1999, dated 2000):

Key:
[1] = tested on: MCF7 cells; assay: Assay for cell growth inhibition, MCF-7 cells, 72 h; format: cell-based; conditions: human mammary carcinoma MCF-7 cells, 0.1, 1 or 10 μM, FIG. 1
Procedure: (§1) All-trans retinoic acid (atRA) was purchased from Eastman Kodak, Rochester, N.Y. Stock solutions were prepared in 100% ethanol and concentrations were determined on a Shimadzu UV-2100 spectrophotometer (4-HBR: λmax=380nm, ε=39,891; 4-HPR: λmax=365 nm, ε=47,900; atRA: λmax=340 nm, ε=45,300). Compound purity was assessed using a Waters HPLC-PDA with a 600E solvent delivery system using a Zorbax ODS, 250×4.6 mm, 5 micron column (Phenomenex, Torrance, Calif.). The column was equilibrated in 88% methanol/water with 10 mM ammonium acetate (flow rate of 1 ml/min). 4-HBR eluted at about 18 min., 4-HPR at about 12 min., and atRA at about 8 min with estimated purities of 96%, 100% and 100% respectively. […]
(§2) Cells (100,000 cells) were passed into a 25 cm^3 flask in 10 ml of medium. […] Two 20 μl aliquots were counted from each treatment group on a Nikon Diaphot 200 fluorescent microscope. Four out of five fields were counted on each side of the hemocytometer. Fluorescence was used to count the number of live cells and phase-contrast was used to count the number of total cells. The average number of live cells per field was divided by the total number of cells per field and expressed as a percentage of the control.
The antiproliferative activity of 4-HPR, 4-HBR, and atRA against MCF-7 human mammary tumor cell culture models was determined using the above-described protocol. […]

[2] = tested on: LA1-15n cells; assay: Assay for cell growth inhibition, LA1-15n cells, 48 h; format: cell-based; conditions: human neuroblastoma LA1-15n cells, 0.1, 1 or 10 μM, FIG. 2
Procedure: as §1, with “respectively. Retinoids were blanketed with argon and stored at -70° C. until use.” for “respectively.”
as §2, with “control. […]” for “control.”

[3] = tested on: serum retinol-binding protein (RBP); assay: Serum retinol binding protein binding study (competition with tritiated all-trans retinol); conditions: human RBP 0.1 μg/μl, 250 nM all-trans-(3H)-ROL, 4° C., FIG. 3
Procedure: RBP (human) was obtained commercially (Sigma). RBP (0.1 μg/μl) was incubated with 250 nM all-trans-(^3 H)-ROL (approx. 5 Ci/mmole) with and without competing ligands at 4° C. for 3 hours. Tritiated retinoid-labeled protein-containing extracts were treated with dextran-coated charcoal to remove unbound ligand before subjecting samples to sedimentation analysis on 5 to 20% sucrose density gradients. ^14 C-Labeled proteins were included with samples as internal sedimentation standards. Gradients were centrifuged at 257,000 g for 20 hours at 4° C. followed by fractionation and analysis of radioactivity.

[4] = Acid stability of 4-HBR; format: physicochemical; conditions: 0.1 N methanolic HCl at 37° C. for 2 hours

CC1=C(/C=C/C(C)=C/C=C/C(C)=C/C(=O)Cc2ccc(O)cc2)C(C)(C)CCC1 [compound 16, 4-hydroxybenzyl retinone]
growth inhibition of MCF7 cells (viability, live cells as percentage of control) [1]: inhibits the growth of MCF7 cells in a dose-dependant fashion | growth inhibition of LA1-15n cells (viability, live cells as percentage of control) [2]: inhibits the growth of LA1-15n cells in a dose-dependant fashion | affinity for serum RBP relative to 4-HPR [3]: binds to serum RBP with less affinity than does 4-HPR | stability under acidic conditions [4]: remained intact
